From article PMC11850817 (Scientific Reports, 2025)

Key:
Mia-Paca-2 = experiment: MTT antiproliferative assay, Mia-Paca-2; type: cell-based, human; conditions: Homo sapiens, MIA PaCa-2, 72 h, read-out: IC50 Mia-Paca-2
FGFR1 = FGFR1 (Homo sapiens, UniProt P11362); experiment: Radiometric kinase assay; type: biochemical; conditions: read-out: Kinase inhibition (%) FGFR1
KDR (VEGFR2) = KDR (VEGFR2) (Homo sapiens, UniProt P35968); experiment: Radiometric kinase assay; type: biochemical; conditions: read-out: Kinase inhibition (%) KDR (VEGFR2)
NTRK3 (TrkC) = NTRK3 (TrkC) (Homo sapiens, UniProt Q16288); experiment: Radiometric kinase assay; type: biochemical; conditions: read-out: Kinase inhibition (%) NTRK3 (TrkC)
PIK3CA = PIK3CA (Homo sapiens, UniProt P42336); experiment: Radiometric kinase assay; type: biochemical; conditions: read-out: Kinase inhibition (%) PIK3CA
ALK = ALK (Homo sapiens, UniProt Q9UM73); experiment: Radiometric kinase assay; type: biochemical; conditions: read-out: Kinase inhibition (%) ALK
CDK2/cyclin A = CDK2/cyclin A (Homo sapiens, UniProt P24941); experiment: Radiometric kinase assay; type: biochemical; conditions: for inhibition at 10 µM: read-out: Kinase inhibition (%) CDK2/cyclin A
FLT1 (VEGFR1) = FLT1 (VEGFR1) (Homo sapiens, UniProt P17948); experiment: Radiometric kinase assay; type: biochemical; conditions: read-out: Kinase inhibition (%) FLT1 (VEGFR1)
FLT1 (VEGFR1), sequence (P17948 27-1338): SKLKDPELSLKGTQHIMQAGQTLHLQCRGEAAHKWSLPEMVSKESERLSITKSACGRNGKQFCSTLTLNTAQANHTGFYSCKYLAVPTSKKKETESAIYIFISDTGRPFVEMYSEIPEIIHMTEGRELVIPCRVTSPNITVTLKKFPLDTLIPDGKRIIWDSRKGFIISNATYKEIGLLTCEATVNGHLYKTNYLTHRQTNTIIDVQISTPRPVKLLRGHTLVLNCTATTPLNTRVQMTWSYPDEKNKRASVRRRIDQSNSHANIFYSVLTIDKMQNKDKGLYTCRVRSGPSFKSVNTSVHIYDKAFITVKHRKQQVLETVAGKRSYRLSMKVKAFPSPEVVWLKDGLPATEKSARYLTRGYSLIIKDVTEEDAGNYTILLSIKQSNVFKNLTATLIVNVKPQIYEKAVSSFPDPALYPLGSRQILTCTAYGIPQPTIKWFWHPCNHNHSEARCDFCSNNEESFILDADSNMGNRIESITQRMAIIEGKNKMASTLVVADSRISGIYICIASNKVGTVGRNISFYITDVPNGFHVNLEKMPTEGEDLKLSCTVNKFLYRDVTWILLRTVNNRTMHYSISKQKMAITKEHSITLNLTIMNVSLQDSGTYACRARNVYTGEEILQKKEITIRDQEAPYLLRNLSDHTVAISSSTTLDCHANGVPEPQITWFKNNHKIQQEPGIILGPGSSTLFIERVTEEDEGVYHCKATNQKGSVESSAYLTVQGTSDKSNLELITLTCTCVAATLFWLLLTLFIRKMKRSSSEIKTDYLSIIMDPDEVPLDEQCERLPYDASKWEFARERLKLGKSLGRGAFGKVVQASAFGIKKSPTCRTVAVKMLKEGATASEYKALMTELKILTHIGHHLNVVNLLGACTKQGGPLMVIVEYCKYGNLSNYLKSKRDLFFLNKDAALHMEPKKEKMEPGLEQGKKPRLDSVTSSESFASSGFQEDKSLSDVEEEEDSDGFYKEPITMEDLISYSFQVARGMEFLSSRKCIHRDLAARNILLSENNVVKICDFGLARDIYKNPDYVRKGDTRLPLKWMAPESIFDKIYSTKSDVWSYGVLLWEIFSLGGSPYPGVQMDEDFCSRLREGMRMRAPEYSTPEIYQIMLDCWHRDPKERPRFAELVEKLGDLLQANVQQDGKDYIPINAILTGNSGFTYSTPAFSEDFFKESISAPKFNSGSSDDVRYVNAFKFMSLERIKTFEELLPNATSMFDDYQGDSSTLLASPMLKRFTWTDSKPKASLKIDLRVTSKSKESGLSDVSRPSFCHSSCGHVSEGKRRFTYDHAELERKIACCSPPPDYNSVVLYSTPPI

AXL = target: T1, AXL (Homo sapiens, UniProt P30530); experiment: Radiometric kinase assay; type: biochemical; conditions: read-out: Kinase inhibition (%) AXL
T1 sequence (P30530 26-894): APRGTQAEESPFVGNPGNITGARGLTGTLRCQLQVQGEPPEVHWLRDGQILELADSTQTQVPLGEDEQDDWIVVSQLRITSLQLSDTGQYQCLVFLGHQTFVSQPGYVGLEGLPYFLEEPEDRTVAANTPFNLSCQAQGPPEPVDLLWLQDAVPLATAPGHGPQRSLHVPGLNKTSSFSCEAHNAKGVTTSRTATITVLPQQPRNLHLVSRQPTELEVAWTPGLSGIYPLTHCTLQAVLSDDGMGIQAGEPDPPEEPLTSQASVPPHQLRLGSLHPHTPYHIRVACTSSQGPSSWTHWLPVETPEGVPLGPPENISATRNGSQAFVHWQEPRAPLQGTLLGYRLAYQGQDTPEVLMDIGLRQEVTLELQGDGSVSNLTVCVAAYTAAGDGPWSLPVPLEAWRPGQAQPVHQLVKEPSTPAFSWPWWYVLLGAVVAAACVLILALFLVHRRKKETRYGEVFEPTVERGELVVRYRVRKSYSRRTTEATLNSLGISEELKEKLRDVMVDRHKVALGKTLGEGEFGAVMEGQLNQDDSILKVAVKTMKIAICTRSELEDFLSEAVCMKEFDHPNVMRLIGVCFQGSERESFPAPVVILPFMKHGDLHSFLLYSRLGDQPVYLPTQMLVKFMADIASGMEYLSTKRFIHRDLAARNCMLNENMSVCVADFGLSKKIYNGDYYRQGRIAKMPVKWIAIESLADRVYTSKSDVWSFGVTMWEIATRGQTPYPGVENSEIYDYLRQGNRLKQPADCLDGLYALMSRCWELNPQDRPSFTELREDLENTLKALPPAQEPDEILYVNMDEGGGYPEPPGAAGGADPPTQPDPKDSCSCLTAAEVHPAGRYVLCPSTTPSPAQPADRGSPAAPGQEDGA

MCF-7 = experiment: MTT antiproliferative assay, MCF-7; type: cell-based, human; conditions: Homo sapiens, MCF7, 72 h, read-out: IC50 MCF-7
AsPC-1 cells [1] = experiment: Apoptosis by Hoechst 33,258 staining; type: cell-based, human; conditions: AsPC-1, 10 and 30 µM, 48 h
KIT (c-Kit) = KIT (c-Kit) (Homo sapiens, UniProt P10721); experiment: Radiometric kinase assay; type: biochemical; conditions: read-out: Kinase inhibition (%) KIT (c-Kit)
NTRK1 (TrkA) = NTRK1 (TrkA) (Homo sapiens, UniProt P04629); experiment: Radiometric kinase assay; type: biochemical; conditions: read-out: Kinase inhibition (%) NTRK1 (TrkA)
BRAF = BRAF (Homo sapiens, UniProt P15056); experiment: Radiometric kinase assay; type: biochemical; conditions: read-out: Kinase inhibition (%) BRAF
AKT2 = AKT2 (Homo sapiens, UniProt P31751); experiment: Radiometric kinase assay; type: biochemical; conditions: read-out: Kinase inhibition (%) AKT2
FLT4 (VEGFR3) = FLT4 (VEGFR3) (Homo sapiens, UniProt P35916); experiment: Radiometric kinase assay; type: biochemical
ERBB2 (Her-2) = ERBB2 (Her-2) (Homo sapiens, UniProt P04626); experiment: Radiometric kinase assay; type: biochemical; conditions: read-out: Kinase inhibition (%) ERBB2 (Her-2)
ABL1 = ABL1 (Homo sapiens, UniProt P00519); experiment: Radiometric kinase assay; type: biochemical; conditions: read-out: Kinase inhibition (%) ABL1
HT-29 = experiment: MTT antiproliferative assay, HT-29; type: cell-based, human; conditions: Homo sapiens, HT-29, 72 h, read-out: IC50 HT-29
EGFR = EGFR (Homo sapiens, UniProt P00533); experiment: Radiometric kinase assay; type: biochemical; conditions: read-out: Kinase inhibition (%) EGFR
ROS1 = ROS1 (Homo sapiens, UniProt P08922); experiment: Radiometric kinase assay; type: biochemical; conditions: read-out: Kinase inhibition (%) ROS1
AsPC-1 cells [2] = experiment: Cell cycle test, RNase/PI flow cytometry; type: cell-based, human; conditions: AsPC-1, 3, 10, 30, 50 µM, 48 h
AURKA = AURKA (Homo sapiens, UniProt O14965); experiment: Radiometric kinase assay; type: biochemical; conditions: read-out: Kinase inhibition (%) AURKA
MAP2K1 = MAP2K1 (Homo sapiens, UniProt Q02750); experiment: Radiometric kinase assay; type: biochemical; conditions: read-out: Kinase inhibition (%) MAP2K1
AsPC-1 = experiment: MTT antiproliferative assay, AsPC-1; type: cell-based, human; conditions: Homo sapiens, ASPC1, 72 h, read-out: IC50 AsPC-1
CDK6/cyclinD3 = CDK6/cyclinD3 (Homo sapiens, UniProt Q00534); experiment: Radiometric kinase assay; type: biochemical; conditions: read-out: Kinase inhibition (%) CDK6/cyclinD3
EBC-1 = experiment: MTT antiproliferative assay, EBC-1; type: cell-based, human; conditions: Homo sapiens, EBC-1, 72 h, read-out: IC50 EBC-1
WEE1 = WEE1 (Homo sapiens, UniProt P30291); experiment: Radiometric kinase assay; type: biochemical; conditions: read-out: Kinase inhibition (%) WEE1
NIH3T3 = experiment: MTT assay, NIH3T3 non-cancer cell line; type: cell-based; conditions: Mus musculus, NIH3T3, 72 h, read-out: IC50 NIH3T3
CHEK1 = CHEK1 (Homo sapiens, UniProt O14757); experiment: Radiometric kinase assay; type: biochemical; conditions: read-out: Kinase inhibition (%) CHEK1
PDGFRA (PDGFRα) = PDGFRA (PDGFRα) (Homo sapiens, UniProt P16234); experiment: Radiometric kinase assay; type: biochemical; conditions: for inhibition at 10 µM: read-out: Kinase inhibition (%) PDGFRA (PDGFRα)
PDGFRA (PDGFRα), sequence (P16234 24-1089): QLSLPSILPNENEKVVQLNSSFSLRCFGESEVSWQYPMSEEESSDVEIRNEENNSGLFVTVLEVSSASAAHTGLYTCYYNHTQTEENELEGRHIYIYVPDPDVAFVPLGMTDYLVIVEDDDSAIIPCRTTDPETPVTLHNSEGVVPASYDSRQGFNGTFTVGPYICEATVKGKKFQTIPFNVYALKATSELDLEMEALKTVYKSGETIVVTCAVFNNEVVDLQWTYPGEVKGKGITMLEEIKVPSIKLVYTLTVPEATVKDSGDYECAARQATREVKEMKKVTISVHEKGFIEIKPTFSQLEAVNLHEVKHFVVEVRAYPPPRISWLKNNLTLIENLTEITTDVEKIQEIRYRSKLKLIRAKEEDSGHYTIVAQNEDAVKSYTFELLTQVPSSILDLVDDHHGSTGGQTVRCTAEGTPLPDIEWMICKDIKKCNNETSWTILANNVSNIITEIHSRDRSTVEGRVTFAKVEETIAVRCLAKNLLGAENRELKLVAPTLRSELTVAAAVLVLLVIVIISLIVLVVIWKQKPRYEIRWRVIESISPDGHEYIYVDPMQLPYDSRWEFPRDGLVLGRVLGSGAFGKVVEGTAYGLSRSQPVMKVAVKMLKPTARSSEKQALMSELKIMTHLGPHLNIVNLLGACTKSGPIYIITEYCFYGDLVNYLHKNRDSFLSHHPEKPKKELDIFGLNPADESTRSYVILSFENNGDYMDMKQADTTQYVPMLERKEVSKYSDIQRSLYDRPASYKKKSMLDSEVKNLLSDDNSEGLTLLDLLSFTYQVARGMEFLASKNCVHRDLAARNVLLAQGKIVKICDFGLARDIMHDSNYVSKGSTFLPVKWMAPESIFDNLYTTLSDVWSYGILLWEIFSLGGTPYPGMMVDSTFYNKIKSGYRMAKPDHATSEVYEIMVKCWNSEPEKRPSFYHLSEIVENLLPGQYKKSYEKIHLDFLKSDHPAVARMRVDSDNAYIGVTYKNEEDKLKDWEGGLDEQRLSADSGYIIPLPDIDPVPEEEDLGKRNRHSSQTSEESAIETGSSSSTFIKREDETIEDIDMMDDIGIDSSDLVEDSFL

AKT1 = AKT1 (Homo sapiens, UniProt P31749); experiment: Radiometric kinase assay; type: biochemical; conditions: read-out: Kinase inhibition (%) AKT1
AKT1, sequence (P31749 whole entry): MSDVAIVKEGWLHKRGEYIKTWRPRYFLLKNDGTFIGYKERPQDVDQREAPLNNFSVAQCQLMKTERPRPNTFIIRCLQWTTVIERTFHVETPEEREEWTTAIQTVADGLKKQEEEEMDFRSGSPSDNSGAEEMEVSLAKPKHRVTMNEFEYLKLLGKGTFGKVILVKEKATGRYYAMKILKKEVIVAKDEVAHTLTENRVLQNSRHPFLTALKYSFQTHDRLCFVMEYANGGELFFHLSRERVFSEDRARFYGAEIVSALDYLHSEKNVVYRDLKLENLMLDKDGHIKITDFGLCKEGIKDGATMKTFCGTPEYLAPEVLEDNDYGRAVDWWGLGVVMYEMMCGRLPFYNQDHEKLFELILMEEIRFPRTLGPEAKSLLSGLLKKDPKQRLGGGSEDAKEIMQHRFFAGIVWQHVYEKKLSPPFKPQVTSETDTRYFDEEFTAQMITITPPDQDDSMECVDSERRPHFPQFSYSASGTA

PDGFRB (PDGFRβ) = PDGFRB (PDGFRβ) (Homo sapiens, UniProt P09619); experiment: Radiometric kinase assay; type: biochemical; conditions: read-out: Kinase inhibition (%) PDGFRB (PDGFRβ)
PDGFRB (PDGFRβ), sequence (P09619 33-1106): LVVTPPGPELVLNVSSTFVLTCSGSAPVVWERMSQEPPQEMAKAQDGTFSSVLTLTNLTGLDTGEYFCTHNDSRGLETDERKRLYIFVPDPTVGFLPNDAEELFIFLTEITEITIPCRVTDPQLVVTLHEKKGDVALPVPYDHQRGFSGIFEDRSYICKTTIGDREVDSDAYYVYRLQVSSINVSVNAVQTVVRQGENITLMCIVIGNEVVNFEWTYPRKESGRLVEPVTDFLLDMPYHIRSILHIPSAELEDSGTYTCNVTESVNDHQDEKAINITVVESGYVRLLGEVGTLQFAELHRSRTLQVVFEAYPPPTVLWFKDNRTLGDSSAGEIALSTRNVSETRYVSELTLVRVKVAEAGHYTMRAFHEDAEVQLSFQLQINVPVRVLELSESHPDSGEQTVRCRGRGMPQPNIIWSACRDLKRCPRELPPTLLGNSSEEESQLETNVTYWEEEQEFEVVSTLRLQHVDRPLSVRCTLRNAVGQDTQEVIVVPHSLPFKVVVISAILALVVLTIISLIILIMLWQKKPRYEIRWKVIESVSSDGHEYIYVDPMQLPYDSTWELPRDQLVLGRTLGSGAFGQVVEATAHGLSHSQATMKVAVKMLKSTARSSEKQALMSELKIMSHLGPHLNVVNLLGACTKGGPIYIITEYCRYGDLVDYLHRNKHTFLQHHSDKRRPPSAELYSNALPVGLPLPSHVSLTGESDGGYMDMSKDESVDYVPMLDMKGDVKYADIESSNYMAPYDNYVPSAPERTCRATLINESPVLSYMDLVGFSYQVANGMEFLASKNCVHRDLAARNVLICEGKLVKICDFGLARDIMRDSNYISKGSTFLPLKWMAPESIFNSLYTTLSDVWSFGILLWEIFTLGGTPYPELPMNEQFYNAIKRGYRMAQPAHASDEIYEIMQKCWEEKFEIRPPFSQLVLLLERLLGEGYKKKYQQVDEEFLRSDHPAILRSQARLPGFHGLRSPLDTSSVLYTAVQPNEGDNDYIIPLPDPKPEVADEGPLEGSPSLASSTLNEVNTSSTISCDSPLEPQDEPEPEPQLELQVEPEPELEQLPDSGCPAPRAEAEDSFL

IGF1R = IGF1R (Homo sapiens, UniProt P08069); experiment: Radiometric kinase assay; type: biochemical; conditions: read-out: Kinase inhibition (%) IGF1R
MET = MET (Homo sapiens, UniProt P08581); experiment: Radiometric kinase assay; type: biochemical; conditions: read-out: Kinase inhibition (%) MET
NTRK2 (TrkB) = NTRK2 (TrkB) (Homo sapiens, UniProt Q16620); experiment: Radiometric kinase assay; type: biochemical; conditions: read-out: Kinase inhibition (%) NTRK2 (TrkB)
FLT3 = FLT3 (Homo sapiens, UniProt P36888); experiment: Radiometric kinase assay; type: biochemical; conditions: read-out: Kinase inhibition (%) FLT3

FGFR1, sequence (P11362 22-822): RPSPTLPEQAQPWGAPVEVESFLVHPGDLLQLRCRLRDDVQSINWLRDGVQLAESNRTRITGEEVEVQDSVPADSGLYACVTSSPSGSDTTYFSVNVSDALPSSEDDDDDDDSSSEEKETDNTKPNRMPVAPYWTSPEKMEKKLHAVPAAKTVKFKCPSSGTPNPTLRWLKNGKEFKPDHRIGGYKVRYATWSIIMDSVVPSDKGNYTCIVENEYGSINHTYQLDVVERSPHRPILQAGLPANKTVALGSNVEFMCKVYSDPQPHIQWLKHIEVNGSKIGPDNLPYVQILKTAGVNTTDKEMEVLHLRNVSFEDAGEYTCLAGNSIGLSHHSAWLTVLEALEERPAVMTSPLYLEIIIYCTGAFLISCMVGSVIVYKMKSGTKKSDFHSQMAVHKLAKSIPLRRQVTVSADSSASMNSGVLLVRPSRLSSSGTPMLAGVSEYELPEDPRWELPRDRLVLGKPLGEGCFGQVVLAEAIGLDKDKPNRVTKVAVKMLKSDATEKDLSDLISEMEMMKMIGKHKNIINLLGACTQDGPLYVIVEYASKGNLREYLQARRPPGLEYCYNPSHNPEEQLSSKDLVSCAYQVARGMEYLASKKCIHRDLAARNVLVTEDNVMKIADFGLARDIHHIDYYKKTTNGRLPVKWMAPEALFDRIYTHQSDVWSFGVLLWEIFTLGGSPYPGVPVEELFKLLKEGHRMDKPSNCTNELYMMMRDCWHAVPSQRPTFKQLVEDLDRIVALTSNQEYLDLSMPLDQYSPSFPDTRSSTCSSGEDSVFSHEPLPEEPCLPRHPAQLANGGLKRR

| SMILES | IC50 (Mia-Paca-2) [µM] | inhibition at 10 µM (FGFR1) [%] | inhibition at 10 µM (KDR (VEGFR2)) [%] | inhibition at 10 µM (ALK) [%] | inhibition at 10 µM (CDK2/cyclin A) [%] | inhibition at 10 µM (FLT1 (VEGFR1)) [%] | inhibition at 10 µM (AXL) [%] | IC50 (MCF-7) [µM] | inhibition at 10 µM (KIT (c-Kit)) [%] | inhibition at 10 µM (NTRK1 (TrkA)) [%] | inhibition at 10 µM (AKT2) [%] | inhibition at 10 µM (ABL1) [%] | IC50 (HT-29) [µM] | inhibition at 10 µM (EGFR) [%] | IC50 (AsPC-1) [µM] | IC50 (EBC-1) [µM] | IC50 (NIH3T3) [µM] | inhibition at 10 µM (PDGFRA (PDGFRα)) [%] | inhibition at 10 µM (AKT1) [%] | inhibition at 10 µM (PDGFRB (PDGFRβ)) [%] | other results |
| --- | --- | --- | --- | --- | --- | --- | --- | --- | --- | --- | --- | --- | --- | --- | --- | --- | --- | --- | --- | --- | --- |
| O=C1C=C(Nc2ccc(OCc3cn(Cc4ccccc4)nn3)cc2)C(=O)c2ccccc21 [Compound 4a, 2-((4-((1-Benzyl-1H-1,2,3-triazol-4-yl)methoxy)phenyl)amino)naphthalene-1,4-dione] | > 100 | 14 | 20 | 16 | 73 | -16 | 14 | > 100 | 1 | 43 | 25 | 7 | 21.9 ± 3.9 | -5 | 23.5 ± 5.8 | 5.1 ± 1.2 | 85.5 ± 19.6 | 71 | 19 | 16 | inhibition at 10 µM (NTRK3 (TrkC)): 40%; inhibition at 10 µM (PIK3CA): 14%; IC50 (CDK2/cyclin A): 1.67 ± 0.115 µM; Apoptosis induction (nuclear morphology) (AsPC-1 cells [1]): characteristic features of apoptosis including densely packed chromatin within the nucleus as well as nuclear fragmentation; inhibition at 10 µM (BRAF): 3%; IC50 (FLT4 (VEGFR3)): 0.554 ± 0.002 µM; inhibition at 10 µM (FLT4 (VEGFR3); read-out: Kinase inhibition (%) FLT4 (VEGFR3)): 87%; inhibition at 10 µM (ERBB2 (Her-2)): 3%; inhibition at 10 µM (ROS1): -6%; Effect on cell cycle distribution (S and G2/M phases) (AsPC-1 cells [2]): dose-dependently increased the number of cells in the S phase and simultaneously reduced the cells in G2/M phase; inhibition at 10 µM (AURKA): -3%; inhibition at 10 µM (MAP2K1): 9%; inhibition at 10 µM (CDK6/cyclinD3): 9%; inhibition at 10 µM (WEE1): 6%; inhibition at 10 µM (CHEK1): -20%; IC50 (PDGFRA (PDGFRα)): 0.629 ± 0.087 µM; inhibition at 10 µM (IGF1R): -3% |
| O=C1C=C(Nc2ccc(OCc3cn(Cc4ccc(Br)cc4)nn3)cc2)C(=O)c2ccccc21 [Compound 4b, 2-((4-((1-(4-Bromobenzyl)−1H-1,2,3-triazol-4 yl)methoxy)phenyl)amino) naphthalene-1,4-dione] | 1.3 ± 0.4 | 1 | -19 | 2 | 32 | -17 | 5 | > 100 | -9 | 4 | -10 | 2 | 56.9 ± 4.3 | -9 | 30.7 ± 2.2 | 2 ± 1.2 | 50.9 ± 8.8 | 37 | 9 | 17 | inhibition at 10 µM (MET): -8%; inhibition at 10 µM (NTRK2 (TrkB)): 13%; inhibition at 10 µM (FLT3): -3% |
